Source: patent publication US9315505B2, “Heterocyclic compounds and uses thereof” (INTELLIKINE LLC, priority 2009, dated 2016)

Columns and labels:
Format in all cases: biochemical
PI3K δ = target: T1, PI3K δ (Homo sapiens, UniProt O00329); test: In vitro IC50, PI3K δ (p110δ/p85α inhibition assay); conditions: in vitro kinase assay; read-out: IC50(nM) PI3K δ
T1 construct: purchased Upstate
Method: (§1) IC50 values are measured using either a standard TLC assay for lipid kinase activity (described below) or a high-throughput membrane capture assay. Kinase reactions are performed by preparing a reaction mixture containing kinase, inhibitor (2% DMSO final concentration), buffer (25 mM HEPES, pH 7.4, 10 mM MgCl2), and freshly sonicated phosphatidylinositol (100 μg/ml). Reactions are initiated by the addition of ATP containing 10 μCi of γ-32P-ATP to a final concentration 10 or 100 μM and allowed to proceed for 5 minutes at room temperature. For TLC analysis, reactions are then terminated by the addition of 105 μl 1N HCl followed by 160 μl CHCl3:MeOH (1:1). The biphasic mixture is vortexed, briefly centrifuged, and the organic phase is transferred to a new tube using a gel loading pipette tip precoated with CHCl3. This extract is spotted on TLC plates and developed for 3-4 hours in a 65:35 solution of n-propanol:1M acetic acid. The TLC plates are then dried, exposed to a phosphorimager screen (Storm, Amersham), and quantitated.
(§2) Other commercial kits or systems for assaying PI3-K activities are available. The commercially available kits or systems can be used to screen for inhibitors and/or agonists of PI3-Ks including but not limited to PI 3-Kinase α, β, δ, and γ. An exemplary system is PI 3-Kinase (human) HTRF™ Assay from Upstate. […] Briefly, the assay is a time resolved FRET assay that indirectly measures PIP3 product formed by the activity of a PI3-K. The kinase reaction is performed in a microtitre plate (e.g., a 384 well microtitre plate). The total reaction volume is approximately 20 ul per well. In the first step, each well receives 2 ul of test compound in 20% dimethylsulphoxide resulting in a 2% DMSO final concentration. Next, approximately 14.5 ul of a kinase/PIP2 mixture (diluted in 1× reaction buffer) is added per well for a final concentration of 0.25-0.3 ug/ml kinase and 10 uM PIP2. The plate is sealed and incubated for 15 minutes at room temperature. To start the reaction, 3.5 ul of ATP (diluted in 1× reaction buffer) is added per well for a final concentration of 10 uM ATP. The plate is sealed and incubated for 1 hour at room temperature. The reaction is stopped by adding 5 ul of Stop Solution per well and then 5 ul of Detection Mix is added per well. The plate is sealed, incubated for 1 hour at room temperature, and then read on an appropriate plate reader. Data is analyzed and IC50s are generated using GraphPad Prism 5.

PI3K γ = target: T2, PI3K γ (Homo sapiens, UniProt P48736); test: In vitro IC50, PI3K γ (p110γ inhibition assay); conditions: in vitro kinase assay
T2 construct: purchased Sigma
Method: as §1, with “Class I PI3-Ks can be either purchased (p110α/p85α, p110β/p85α, p110δ/p85α from Upstate, and p110γ from Sigma) or expressed as previously described (Knight et al., 2004). IC50” for “IC50”, “quantitated. For each compound, kinase activity is measured at 10-12 inhibitor concentrations representing two-fold dilutions from the highest concentration tested (typically, 200 μM).” for “quantitated.”
as §2

PI3K α = target: T3, PI3K α (Homo sapiens, UniProt P42336); test: In vitro IC50, PI3K α (p110α/p85α inhibition assay); conditions: in vitro kinase assay; read-out: IC50(nM) PI3K α
T3 construct: purchased Upstate
Method: as §1, §2

T2 sequence (P48736 whole entry): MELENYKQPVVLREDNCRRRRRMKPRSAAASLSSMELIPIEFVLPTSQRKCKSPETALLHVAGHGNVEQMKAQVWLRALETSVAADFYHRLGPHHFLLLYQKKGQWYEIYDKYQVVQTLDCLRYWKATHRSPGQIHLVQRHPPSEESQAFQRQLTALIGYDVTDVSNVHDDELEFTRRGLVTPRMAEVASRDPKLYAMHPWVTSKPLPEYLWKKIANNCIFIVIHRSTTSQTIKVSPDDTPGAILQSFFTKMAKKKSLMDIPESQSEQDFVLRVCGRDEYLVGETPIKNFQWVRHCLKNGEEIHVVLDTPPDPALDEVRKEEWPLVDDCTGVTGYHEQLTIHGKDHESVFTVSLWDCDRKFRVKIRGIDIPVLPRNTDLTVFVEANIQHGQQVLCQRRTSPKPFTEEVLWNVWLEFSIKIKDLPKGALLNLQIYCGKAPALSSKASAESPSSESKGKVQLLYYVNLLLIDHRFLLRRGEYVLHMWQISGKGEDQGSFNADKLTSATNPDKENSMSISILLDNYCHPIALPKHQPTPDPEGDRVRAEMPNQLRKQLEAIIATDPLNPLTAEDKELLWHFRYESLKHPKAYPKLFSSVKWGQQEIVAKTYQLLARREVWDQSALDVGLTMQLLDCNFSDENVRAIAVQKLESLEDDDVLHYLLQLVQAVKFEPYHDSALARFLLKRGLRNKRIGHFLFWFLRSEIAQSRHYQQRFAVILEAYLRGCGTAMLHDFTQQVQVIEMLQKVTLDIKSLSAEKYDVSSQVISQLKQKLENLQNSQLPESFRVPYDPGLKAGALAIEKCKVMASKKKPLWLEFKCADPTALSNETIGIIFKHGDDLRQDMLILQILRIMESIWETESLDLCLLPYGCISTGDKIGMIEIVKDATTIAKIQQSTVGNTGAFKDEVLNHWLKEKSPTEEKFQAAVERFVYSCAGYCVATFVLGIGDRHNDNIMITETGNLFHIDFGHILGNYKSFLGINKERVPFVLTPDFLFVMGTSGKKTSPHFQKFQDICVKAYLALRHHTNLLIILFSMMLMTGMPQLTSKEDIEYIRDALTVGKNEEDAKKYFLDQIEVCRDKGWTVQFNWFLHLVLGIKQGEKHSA
T1 sequence (O00329 whole entry): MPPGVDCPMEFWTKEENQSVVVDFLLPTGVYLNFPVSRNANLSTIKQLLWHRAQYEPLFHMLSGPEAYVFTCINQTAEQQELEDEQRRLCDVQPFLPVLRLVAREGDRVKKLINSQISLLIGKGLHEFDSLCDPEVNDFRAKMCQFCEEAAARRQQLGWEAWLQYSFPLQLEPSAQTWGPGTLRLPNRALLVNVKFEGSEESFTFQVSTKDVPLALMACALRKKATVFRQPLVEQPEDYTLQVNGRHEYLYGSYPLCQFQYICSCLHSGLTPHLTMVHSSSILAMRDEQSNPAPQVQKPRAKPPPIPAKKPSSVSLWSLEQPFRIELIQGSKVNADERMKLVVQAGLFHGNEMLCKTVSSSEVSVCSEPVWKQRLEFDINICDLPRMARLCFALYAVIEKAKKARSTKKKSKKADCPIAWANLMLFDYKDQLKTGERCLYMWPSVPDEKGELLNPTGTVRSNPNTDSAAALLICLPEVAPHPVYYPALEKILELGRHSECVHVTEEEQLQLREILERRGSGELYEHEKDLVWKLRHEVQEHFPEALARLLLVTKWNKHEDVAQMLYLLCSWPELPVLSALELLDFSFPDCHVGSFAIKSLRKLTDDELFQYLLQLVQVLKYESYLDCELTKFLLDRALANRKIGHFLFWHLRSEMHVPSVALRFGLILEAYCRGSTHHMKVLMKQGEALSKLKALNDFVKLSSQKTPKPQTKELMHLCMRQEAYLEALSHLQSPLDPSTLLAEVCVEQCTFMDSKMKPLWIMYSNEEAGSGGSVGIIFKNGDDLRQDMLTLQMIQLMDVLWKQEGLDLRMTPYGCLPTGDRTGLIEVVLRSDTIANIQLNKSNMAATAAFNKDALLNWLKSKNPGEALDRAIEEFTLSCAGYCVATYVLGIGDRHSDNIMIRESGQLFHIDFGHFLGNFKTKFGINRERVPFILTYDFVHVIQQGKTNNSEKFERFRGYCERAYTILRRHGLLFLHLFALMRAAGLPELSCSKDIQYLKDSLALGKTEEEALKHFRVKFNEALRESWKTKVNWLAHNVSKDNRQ
T1 sequence (P27986 whole entry partner): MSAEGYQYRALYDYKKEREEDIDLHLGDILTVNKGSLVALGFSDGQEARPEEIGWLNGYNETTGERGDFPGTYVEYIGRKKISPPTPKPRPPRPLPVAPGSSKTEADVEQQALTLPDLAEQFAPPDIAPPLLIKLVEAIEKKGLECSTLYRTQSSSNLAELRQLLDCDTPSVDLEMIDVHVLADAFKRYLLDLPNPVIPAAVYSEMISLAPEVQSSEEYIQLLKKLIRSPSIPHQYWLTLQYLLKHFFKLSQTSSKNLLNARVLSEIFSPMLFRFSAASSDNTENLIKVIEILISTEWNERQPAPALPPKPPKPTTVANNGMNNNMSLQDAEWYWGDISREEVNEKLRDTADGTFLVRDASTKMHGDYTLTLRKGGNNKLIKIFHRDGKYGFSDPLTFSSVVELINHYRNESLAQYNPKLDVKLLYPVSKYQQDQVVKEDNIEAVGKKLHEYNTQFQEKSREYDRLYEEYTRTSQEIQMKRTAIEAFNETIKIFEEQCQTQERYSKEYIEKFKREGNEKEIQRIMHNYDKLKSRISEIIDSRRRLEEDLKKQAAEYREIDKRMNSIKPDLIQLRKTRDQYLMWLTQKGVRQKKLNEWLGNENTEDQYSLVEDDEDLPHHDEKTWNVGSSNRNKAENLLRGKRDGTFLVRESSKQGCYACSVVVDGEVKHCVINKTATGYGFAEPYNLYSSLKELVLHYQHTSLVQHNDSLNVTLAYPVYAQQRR
T3 sequence (P42336 whole entry): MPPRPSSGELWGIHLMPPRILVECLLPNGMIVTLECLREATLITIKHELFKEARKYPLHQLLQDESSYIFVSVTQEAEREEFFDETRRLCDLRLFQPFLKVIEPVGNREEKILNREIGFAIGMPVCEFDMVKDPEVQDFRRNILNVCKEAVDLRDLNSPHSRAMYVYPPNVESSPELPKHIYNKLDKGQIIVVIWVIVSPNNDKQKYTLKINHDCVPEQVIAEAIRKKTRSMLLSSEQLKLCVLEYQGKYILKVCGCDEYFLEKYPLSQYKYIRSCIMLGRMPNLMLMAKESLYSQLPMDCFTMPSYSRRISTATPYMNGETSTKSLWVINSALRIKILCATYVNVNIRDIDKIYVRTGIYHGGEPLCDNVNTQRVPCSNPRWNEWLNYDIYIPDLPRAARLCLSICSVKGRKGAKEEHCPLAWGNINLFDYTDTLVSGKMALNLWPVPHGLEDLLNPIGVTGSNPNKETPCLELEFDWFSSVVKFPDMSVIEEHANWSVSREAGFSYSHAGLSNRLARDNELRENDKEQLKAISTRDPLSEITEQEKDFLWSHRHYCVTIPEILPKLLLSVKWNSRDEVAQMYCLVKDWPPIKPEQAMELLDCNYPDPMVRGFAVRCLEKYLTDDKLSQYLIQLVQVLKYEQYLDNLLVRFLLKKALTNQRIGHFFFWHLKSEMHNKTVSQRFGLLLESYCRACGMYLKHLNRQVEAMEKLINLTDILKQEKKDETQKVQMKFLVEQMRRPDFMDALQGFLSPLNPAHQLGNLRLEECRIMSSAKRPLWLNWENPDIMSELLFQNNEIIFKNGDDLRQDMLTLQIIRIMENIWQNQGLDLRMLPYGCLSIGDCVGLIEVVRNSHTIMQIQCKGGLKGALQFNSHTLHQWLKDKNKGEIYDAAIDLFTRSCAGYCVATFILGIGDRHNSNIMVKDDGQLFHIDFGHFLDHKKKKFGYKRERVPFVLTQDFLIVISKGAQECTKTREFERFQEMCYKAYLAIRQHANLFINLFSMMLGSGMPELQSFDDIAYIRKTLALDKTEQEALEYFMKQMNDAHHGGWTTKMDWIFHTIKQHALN
T3 sequence (P27986 whole entry partner): as the sequence (P27986 whole entry partner) above

Row | SMILES | IC50 (PI3K δ) [nM] | IC50 (PI3K γ) [nM] | IC50 (PI3K α) [nM]
1 | Cc1cccc2cc(CN(C)c3ncnc4[nH]cnc34)nc(OC3CCN(C(C)C)CC3)c12 [Compound 12] | < 1000 | > 10000 | > 10000
2 | C[C@H](Nc1ncnc2[nH]cnc12)c1cc2cccc(Cl)c2c(CCN2CC(F)(F)C2)n1 [Compound 89] | < 100 | < 1000 | < 10000
3 | Cc1cccc2cc(C(Nc3ncnc4[nH]cnc34)c3ccccc3)ncc12 (stereo not shown) [Compound 33] | < 10000 |  | 
4 | CC(Nc1ncnc2[nH]cnc12)c1cc2ccccc2c(OC2CCNCC2)n1 (stereo not shown) [Compound 22] | < 10000 |  | 
5 | C[C@H](Nc1ncnc2[nH]cnc12)c1nc(N2CCOCC2)c2c(Cl)cccc2n1 [Compound 93] | < 10000 | > 10000 | > 10000
6 | C[C@H](Nc1ncnc2[nH]cnc12)c1cc2cccc(Cl)c2c(N2CCN(S(C)(=O)=O)C[C@H]2C)n1 [Compound 86] | < 1000 | < 1000 | > 10000
7 | CC(=O)N1CCN(c2nc([C@H](C)Nc3ncnc4[nH]cnc34)nc3cccc(Cl)c23)CC1 [Compound 96] | < 1000 | < 1000 | > 10000
8 | C[C@H](Nc1ncnc2[nH]cnc12)c1cc2cccc(Cl)c2c(N2CCN(S(C)(=O)=O)C[C@@H]2C)n1 [Compound 85] | < 100 | < 100 | < 1000
9 | Cc1cccc2cc(CNc3ncnc4[nH]cnc34)nc(OC3CCN(C(C)C)CC3)c12 [Compound 10] | < 100 | > 10000 | > 10000
10 | CC(Nc1ncnc2[nH]cnc12)c1cc2ccccc2c(OC2CCN(C)CC2)n1 (stereo not shown) [Compound 23] | < 1000 | > 10000 | > 10000
11 | C[C@H](Nc1ncnc2[nH]cnc12)c1cc2ccccc2c(N2CCN(S(C)(=O)=O)CC2)n1 [Compound 77] | < 1000 | > 10000 | > 10000
12 | C[C@H](Nc1ncnc2[nH]cnc12)c1cc2cccc(Cl)c2c(OCCN2CCCC2)n1 [Compound 72] | < 100 | < 1000 | < 10000
13 | CCN(Cc1cc2cccc(C)c2c(OC2CCN(C(C)C)CC2)n1)c1ncnc2[nH]cnc12 [Compound 11] | < 10000 | > 10000 | > 10000
14 | Cc1cccc2cc(C(C)Nc3ncnc4[nH]cnc34)nc(OC3CCN(C(C)C)CC3)c12 (stereo not shown) [Compound 21] | < 100 | > 10000 | < 10000
15 | CC(=O)N1CCC(Oc2nc(C(C)Nc3ncnc4[nH]cnc34)cc3ccccc23)CC1 (stereo not shown) [Compound 52] | < 1000 | > 10000 | > 10000
16 | Cc1cccc2cc(Cn3nc(-c4ccc5oc(N)nc5c4)c4c(N)ncnc43)nc(OC(C)C)c12 [Compound 29] | > 10000 |  | 
17 | Cc1cccc2cc(Cn3nc(-c4cn[nH]c4)c4c(N)ncnc43)nc(N3CCCC3)c12 [Compound 27] | < 100 | < 1000 | < 10000
18 | CC(=O)Nc1nc2ccc(-c3nn(Cc4cc5cccc(C)c5c(OC(C)C)n4)c4ncnc(N)c34)cc2s1 [Compound 28] | > 10000 |  | 
19 | Cc1cccc2cc(C(C)Nc3ncnc4[nH]cnc34)nc(OC3CCN(S(C)(=O)=O)CC3)c12 (stereo not shown) [Compound 48] | < 100 | < 10000 | > 10000
20 | CC(Nc1ncnc2[nH]cnc12)c1cc2cccc(Cl)c2c(CCN2CCOCC2)n1 (stereo not shown) [Compound 78] | < 100 | < 10000 | > 10000
21 | Cc1cccc2cc(C(C)Nc3ncnc4[nH]cnc34)nc(OC3CCOCC3)c12 (stereo not shown) [Compound 40] | < 1000 | > 10000 | 
22 | Cc1cccc2cc(Cn3nc(-c4ccc5oc(N)nc5c4)c4c(N)ncnc43)nc(Oc3ccccc3)c12 [Compound 34] | < 10000 |  | 
